# Assay results taken from ChEMBL document CHEMBL6078645, “Expanding the Solvent/Protein Region Occupation of the Non-Nucleoside Reverse Transcriptase Inhibitor Binding Pocket for Improved Broad-Spectrum Anti-HIV-1 Efficacy: from Rigid Phenyl-Diarylpyrimidines to Flexible Hydrophilic Piperidine-Diarylpyrimidines” (J Med Chem, 2024).
# pEC50, pIC50: −log10 of the molar value. Values joined by “and” are separate entries in the source; they are usually repeats but may differ in a detail not shown here. Identical values can stand only once.
# Tests used:
# [1] = Solubility of compound in phosphate buffer at pH 7.4 incubated for 24 hrs by HPLC analysis; type: physicochemical
# [2] = Solubility of compound incubated for 24 hrs by HPLC analysis; type: physicochemical
# [3] = Solubility of compound in phosphate buffer at pH 2 incubated for 24 hrs by HPLC analysis; type: physicochemical
# [4] = Solubility of compound in phosphate buffer at pH 7 incubated for 24 hrs by HPLC analysis; type: physicochemical
# [5] = system: Human immunodeficiency virus 1; test: Antiviral activity against HIV-1 harboring Y188L mutant infected in human MT4 cells assessed as protection against virus-induced cytopathic effect incubated for 5 days by MTT assay; type: functional, organism-based
# [6] = target: T1, Human immunodeficiency virus type 1 reverse transcriptase (Human immunodeficiency virus 1, UniProt Q72547); test: Inhibition of wildtype recombinant HIV-1 Reverse transcriptase incubated for 40 mins by spectrofluorometric analysis
# [7] = Selectivity index, ratio of CC50 for cytotoxicity against human MT4 cells assessed as reduction in cell viability to EC50 for antiviral activity against wild type HIV-1 IIIB infected in human MT4 cells assessed as protection against virus-induced cytopathic effect; type: toxicity, cell-based; details: for selectivity ratio: MT4 cells, read-out: Ratio CC50/EC50
# [8] = (§1) Cytotoxicity against human MT4 cells assessed as reduction in cell viability incubated for 5 days by MTT assay; type: toxicity, cell-based; details: MT4 cells, time 5 day
# [9] = system: Human immunodeficiency virus 1; test: Antiviral activity against HIV-1 harboring F227L/V106A double mutant infected in human MT4 cells assessed as protection against virus-induced cytopathic effect incubated for 5 days by MTT assay; type: functional, organism-based
# [10] = system: Human immunodeficiency virus 1; test: Antiviral activity against wild type HIV-1 IIIB infected in human MT4 cells assessed as protection against virus-induced cytopathic effect incubated for 5 days by MTT assay; type: functional, organism-based
# [11] = system: Human immunodeficiency virus 1; test: Antiviral activity against HIV-1 harboring RES056 mutant infected in human MT4 cells assessed as protection against virus-induced cytopathic effect incubated for 5 days by MTT assay; type: functional, organism-based
# [12] = system: Human immunodeficiency virus 1; test: Antiviral activity against HIV-1 harboring E138K mutant infected in human MT4 cells assessed as protection against virus-induced cytopathic effect incubated for 5 days by MTT assay; type: functional, organism-based; details: Human immunodeficiency virus 1, MT4, 120 h
# [13] = system: Human immunodeficiency virus 1; test: Antiviral activity against HIV-1 harboring L100I mutant infected in human MT4 cells assessed as protection against virus-induced cytopathic effect incubated for 5 days by MTT assay; type: functional, organism-based; details: Human immunodeficiency virus 1, MT4, 120 h
# [14] = system: MT4; test: as §1; type: toxicity, cell-based; details: mt4, 120 h, 120 h, time 5 day
# [15] = system: Human immunodeficiency virus 1; test: Antiviral activity against HIV-1 harboring K103N mutant infected in human MT4 cells assessed as protection against virus-induced cytopathic effect incubated for 5 days by MTT assay; type: functional, organism-based; details: Human immunodeficiency virus 1, MT4, 120 h
# [16] = target: T1, Human immunodeficiency virus type 1 reverse transcriptase; test: Inhibition of HIV-1 reverse transcriptase
# [17] = system: Human immunodeficiency virus 1; test: Antiviral activity against HIV-1 harboring Y181C mutant infected in human MT4 cells assessed as protection against virus-induced cytopathic effect incubated for 5 days by MTT assay; type: functional, organism-based; details: Human immunodeficiency virus 1, MT4, 120 h
# [18] = target: CYP2C9 (Homo sapiens, UniProt P11712); test: Inhibition of CYP2C9 in human liver microsome preincubated with compound for 10 minutes followed NADPH addition and measured after 15 mins by LC-MS/MS analysis; type: ADME, microsomes; details: human, human liver microsomes
# [19] = target: CYP2D6 (Homo sapiens, UniProt P10635); test: Inhibition of CYP2D6 in human liver microsome preincubated with compound for 10 minutes followed NADPH addition and measured after 15 mins by LC-MS/MS analysis; type: ADME, microsomes; details: human, human liver microsomes
# [20] = target: T2, CYP3A4 (Homo sapiens, UniProt P08684); test: Inhibition of CYP3A4 in human liver microsome using testosterone as substrate preincubated with compound for 10 minutes followed NADPH addition and measured after 15 mins by LC-MS/MS analysis; type: ADME, microsomes; details: human, human liver microsomes, probe testosterone
# [21] = target: T3, CYP1A2 (Homo sapiens, UniProt P05177); test: Inhibition of CYP1A2 in human liver microsome preincubated with compound for 10 minutes followed NADPH addition and measured after 15 mins by LC-MS/MS analysis; type: ADME, microsomes; details: human, human liver microsomes
# T3 sequence (P05177 whole entry): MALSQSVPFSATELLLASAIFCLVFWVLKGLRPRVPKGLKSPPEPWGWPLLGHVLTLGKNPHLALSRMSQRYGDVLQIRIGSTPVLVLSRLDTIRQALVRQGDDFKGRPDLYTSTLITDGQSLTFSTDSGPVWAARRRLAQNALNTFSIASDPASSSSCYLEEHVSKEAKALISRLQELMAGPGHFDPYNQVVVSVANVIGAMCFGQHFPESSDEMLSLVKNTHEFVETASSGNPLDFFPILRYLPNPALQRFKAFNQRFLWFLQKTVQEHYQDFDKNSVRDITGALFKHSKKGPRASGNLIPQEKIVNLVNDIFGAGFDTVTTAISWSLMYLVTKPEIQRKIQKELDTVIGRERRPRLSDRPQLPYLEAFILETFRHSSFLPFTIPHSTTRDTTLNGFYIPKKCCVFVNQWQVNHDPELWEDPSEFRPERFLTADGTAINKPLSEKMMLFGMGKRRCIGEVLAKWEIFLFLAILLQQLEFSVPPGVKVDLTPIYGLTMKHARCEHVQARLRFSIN
# [22] = target: T2, CYP3A4; test: Inhibition of CYP3A4 in human liver microsome using midazolam as substrate preincubated with compound for 10 minutes followed NADPH addition and measured after 15 mins by LC-MS/MS analysis; type: ADME, microsomes; details: human, human liver microsomes, probe midazolam
# [23] = target: Cytochrome P450 2C19 (Homo sapiens, UniProt P33261); test: Inhibition of CYP2C19 in human liver microsome preincubated with compound for 10 minutes followed NADPH addition and measured after 15 mins by LC-MS/MS analysis; type: ADME, microsomes
# [24] = Human immunodeficiency virus 1, MT4, 120 h
# [25] = Human immunodeficiency virus 1, IIIB, MT4, 120 h
# T2 sequence (P08684 whole entry): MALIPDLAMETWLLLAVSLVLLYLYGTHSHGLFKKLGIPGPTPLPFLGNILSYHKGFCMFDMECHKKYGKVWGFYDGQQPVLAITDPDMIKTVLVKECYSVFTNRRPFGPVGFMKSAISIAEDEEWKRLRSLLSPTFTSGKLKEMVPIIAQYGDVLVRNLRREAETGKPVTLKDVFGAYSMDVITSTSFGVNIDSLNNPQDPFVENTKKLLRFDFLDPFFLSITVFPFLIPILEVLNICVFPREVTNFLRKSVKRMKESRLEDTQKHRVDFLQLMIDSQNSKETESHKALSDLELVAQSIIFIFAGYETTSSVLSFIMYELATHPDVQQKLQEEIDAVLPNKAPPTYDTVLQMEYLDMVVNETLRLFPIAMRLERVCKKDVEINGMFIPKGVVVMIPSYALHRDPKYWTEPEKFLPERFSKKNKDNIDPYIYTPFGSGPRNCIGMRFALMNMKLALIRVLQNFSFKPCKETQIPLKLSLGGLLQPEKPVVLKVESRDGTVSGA
# CYP2D6, sequence (P10635 whole entry): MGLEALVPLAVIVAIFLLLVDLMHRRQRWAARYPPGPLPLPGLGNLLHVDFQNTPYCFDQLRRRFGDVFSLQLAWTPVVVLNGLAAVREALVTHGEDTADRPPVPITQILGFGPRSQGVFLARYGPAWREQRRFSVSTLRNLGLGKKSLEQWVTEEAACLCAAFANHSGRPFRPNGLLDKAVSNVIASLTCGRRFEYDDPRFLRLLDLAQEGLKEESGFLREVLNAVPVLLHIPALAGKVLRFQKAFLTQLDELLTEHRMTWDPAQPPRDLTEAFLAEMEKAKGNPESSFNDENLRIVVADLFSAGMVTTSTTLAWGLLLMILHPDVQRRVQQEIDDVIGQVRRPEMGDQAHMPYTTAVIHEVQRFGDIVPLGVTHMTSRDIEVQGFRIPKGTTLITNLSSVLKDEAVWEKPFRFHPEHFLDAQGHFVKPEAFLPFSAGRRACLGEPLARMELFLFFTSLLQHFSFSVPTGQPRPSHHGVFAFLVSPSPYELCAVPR
# Cytochrome P450 2C19, sequence (P33261 whole entry): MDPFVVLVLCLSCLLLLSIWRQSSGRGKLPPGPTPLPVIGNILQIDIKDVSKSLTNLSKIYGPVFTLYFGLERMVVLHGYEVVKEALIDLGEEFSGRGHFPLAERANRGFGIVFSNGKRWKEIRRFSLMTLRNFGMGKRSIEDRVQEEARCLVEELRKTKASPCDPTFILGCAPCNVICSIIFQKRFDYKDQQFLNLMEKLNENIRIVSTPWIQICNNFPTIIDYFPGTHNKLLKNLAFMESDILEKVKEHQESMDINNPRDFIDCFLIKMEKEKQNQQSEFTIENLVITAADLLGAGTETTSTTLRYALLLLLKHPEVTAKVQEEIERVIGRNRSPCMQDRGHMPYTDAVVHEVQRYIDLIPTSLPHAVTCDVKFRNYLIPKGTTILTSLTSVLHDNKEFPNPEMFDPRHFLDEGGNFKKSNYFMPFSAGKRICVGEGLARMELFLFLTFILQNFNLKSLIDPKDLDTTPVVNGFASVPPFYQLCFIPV
# CYP2C9, sequence (P11712 whole entry): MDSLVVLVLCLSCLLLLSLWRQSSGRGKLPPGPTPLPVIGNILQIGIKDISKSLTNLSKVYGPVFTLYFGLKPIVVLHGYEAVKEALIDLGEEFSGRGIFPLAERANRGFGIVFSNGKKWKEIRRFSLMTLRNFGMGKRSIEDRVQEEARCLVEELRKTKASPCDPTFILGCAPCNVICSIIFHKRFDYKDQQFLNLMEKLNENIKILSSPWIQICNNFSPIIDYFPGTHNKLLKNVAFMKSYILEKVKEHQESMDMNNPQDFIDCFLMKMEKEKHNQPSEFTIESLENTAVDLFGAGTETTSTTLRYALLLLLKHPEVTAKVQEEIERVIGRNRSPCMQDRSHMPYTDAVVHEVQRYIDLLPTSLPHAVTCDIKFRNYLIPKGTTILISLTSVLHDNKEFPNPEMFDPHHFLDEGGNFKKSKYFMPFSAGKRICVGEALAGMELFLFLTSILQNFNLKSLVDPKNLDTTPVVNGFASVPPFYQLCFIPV
smiles,measurement,setting,value
Cc1cc(-c2ccc(C#N)cc2)cc(C)c1Oc1nc(NC2CCN(Cc3ccc(S(N)(=O)=O)cc3)CC2)ncc1CO.Cl,solubility at 24 h,[1],< 0.001 mg/mL
same,solubility at 24 h,[2],5.27 mg/mL
same,solubility at 24 h,[3],> 56.4 mg/mL
same,solubility at 24 h,[4],< 0.001 mg/mL
Cc1cc(-c2ccncc2)cc(C)c1Oc1nc(NC2CCN(Cc3ccc(S(N)(=O)=O)cc3)CC2)ncc1CO,pEC50,[5]; [24],6.75
same,pIC50,[6],3.72
same,selectivity ratio,[7],> 7620
same,CC50 at 120 h,[8],> 218 µM
same,pEC50,[9]; [24],7.19
same,pEC50,[10]; [25],7.54
same,pEC50,[11]; [24],6.48
Cc1cc(-c2ccncc2)cc(C)c1Oc1nc(NC2CCN(Cc3cccc(C(N)=O)c3)CC2)ncc1CO,pEC50,[5]; [24],7.00
same,pIC50,[6],6.73
same,selectivity ratio,[7],> 23800
same,CC50 at 120 h,[8],> 232 µM
same,pEC50,[9]; [24],7.01
same,pEC50,[10]; [25],8.00
same,pEC50,[11]; [24],6.05
Cc1cc(-c2ccc(C#N)cc2)cc(C)c1Oc1nc(NC2CCN(Cc3ccc(S(=O)(=O)N4CCC(O)CC4)cc3)CC2)ncc1CO,pEC50,[12],7.42
same,pEC50,[13],7.66
same,pEC50,[5]; mt4,6.90 and 7.25
same,pIC50,[6],6.23
same,CC50,[14],3.25 µM and 18.4 µM
same,pEC50,[9]; [24],7.27
same,pEC50,[9]; mt4,7.29
same,pEC50,[15],8.05
same,pEC50,[11]; [24],6.77
same,pEC50,[11]; mt4,6.51
same,pEC50,[16],8.10 and 8.05
same,pEC50,[17],7.41
N#Cc1ccc(Nc2ncc(CO)c(Oc3c(F)cc(-c4ccc(C#N)cc4)cc3F)n2)cc1,pEC50,[12],8.40
same,IC50 at 15 min,[18],> 25 µM
same,IC50 at 15 min,[19],> 25 µM
same,IC50 at 15 min,[20],> 25 µM
same,pEC50,[13],8.10
same,pEC50,[5]; [24],6.79
same,IC50 at 15 min,[21],> 25 µM
same,IC50 at 15 min,[22],> 25 µM
same,pIC50,[23],4.85
same,selectivity ratio,[7],256000
same,CC50 at 120 h,[8],226 µM
same,pEC50,[9]; [24],5.96
same,pEC50,[15],8.70
same,pEC50,[11]; [24],6.01
same,pEC50,[16],9.00
same,pEC50,[17],7.82
CNC(=O)c1ccc(CN2CCC(Nc3ncc(CO)c(Oc4c(C)cc(-c5ccncc5)cc4C)n3)CC2)cc1,pEC50,[5]; [24],6.91
same,pIC50,[6],6.60
same,selectivity ratio,[7],> 20200
same,CC50 at 120 h,[8],> 226 µM
same,pEC50,[9]; [24],6.88
same,pEC50,[10]; [25],7.96
same,pEC50,[11]; [24],6.03
Cc1cc(-c2ccncc2)cc(C)c1Oc1nc(NC2CCN(Cc3ccc(S(=O)(=O)NCCO)cc3)CC2)ncc1CO,pEC50,[5]; [24],6.33
same,pEC50,[5]; mt4,6.04
same,pIC50,[6],6.73
same,selectivity ratio,[7],5080
same,Ratio CC50/EC50,[7]; mt4,> 5837
same,CC50,[14],> 210 µM
same,pEC50,[9]; [24],6.55
same,pEC50,[9]; mt4,6.39
same,pEC50,[10]; [25],7.55
same,pEC50,[10]; mt4,7.44
same,pEC50,[11]; mt4,5.91 and 5.58
Cc1cc(-c2ccncc2)cc(C)c1Oc1nc(NC2CCN(Cc3ccc(C(=O)NCCO)cc3)CC2)ncc1CO,pEC50,[5]; [24],5.70
same,pIC50,[6],6.65
same,selectivity ratio,[7],> 5500
same,CC50 at 120 h,[8],> 215 µM
same,pEC50,[9]; [24],5.55
same,pEC50,[10]; [25],7.41
same,pEC50,[11]; [24],5.25
COCCNC(=O)c1ccc(CN2CCC(Nc3ncc(CO)c(Oc4c(C)cc(-c5ccncc5)cc4C)n3)CC2)cc1,pEC50,[12],7.30
same,pEC50,[13],7.96
same,pEC50,[5]; [24],7.34
same,selectivity ratio,[7],11200
same,CC50 at 120 h,[8],110 µM
same,pEC50,[9]; [24],7.19
same,pEC50,[15],8.30
same,pEC50,[10]; [25],8.00
same,pEC50,[11]; [24],7.24
same,pEC50,[17],7.47
CNS(=O)(=O)c1ccc(CN2CCC(Nc3ncc(CO)c(Oc4c(C)cc(-c5ccncc5)cc4C)n3)CC2)cc1,pEC50,[5]; [24],7.00
same,pIC50,[6],6.70
same,selectivity ratio,[7],> 14800
same,CC50 at 120 h,[8],> 212 µM
same,pEC50,[9]; [24],6.63
same,pEC50,[10]; [25],7.85
same,pEC50,[11]; [24],6.39
COCCNS(=O)(=O)c1ccc(CN2CCC(Nc3ncc(CO)c(Oc4c(C)cc(-c5ccncc5)cc4C)n3)CC2)cc1,pEC50,[12],7.32
same,pEC50,[13],8.05
same,pEC50,[5]; [24],7.32
same,selectivity ratio,[7],5130
same,CC50 at 120 h,[8],45.9 µM
same,pEC50,[9]; [24],6.91
same,pEC50,[15],8.15
same,pEC50,[10]; [25],8.05
same,pEC50,[11]; [24],6.80
same,pEC50,[17],7.41
Cc1cc(-c2ccncc2)cc(C)c1Oc1nc(NC2CCN(Cc3ccc(C(N)=O)cc3)CC2)ncc1CO,pEC50,[5]; [24],6.68
same,pIC50,[6],6.74
same,selectivity ratio,[7],> 24800
same,CC50 at 120 h,[8],> 232 µM
same,pEC50,[9]; [24],6.64
same,pEC50,[10]; [25],8.05
same,pEC50,[11]; [24],5.83
Cc1cc(C#N)cc(C)c1Oc1nc(Nc2ccc(C#N)cc2)nc(N)c1Br [ETRAVIRINE],solubility at 24 h,[1],< 0.001 mg/mL
same,pEC50,[13],8.22
same,CC50 at 120 h,[8],> 4.61 µM
same,solubility at 24 h,[2],< 0.001 mg/mL
same,pEC50,[11]; [24],7.43
same,solubility at 24 h,[3],0.127 mg/mL
same,solubility at 24 h,[4],< 0.001 mg/mL
